Results reported in patent US20250304576A1 (Cancer Research Technology Limited, priority 2022, published 2025).

Legend:
Recombinant IKKα = biological target: T1, Recombinant IKKα (Homo sapiens, UniProt O15111); assay: DELFIA IKKα kinase assay (apparent Ki, Cheng-Prusoff); format: biochemical
T1 construct: purchased Millipore, Dundee, UK
T1 sequence (O15111 1-745): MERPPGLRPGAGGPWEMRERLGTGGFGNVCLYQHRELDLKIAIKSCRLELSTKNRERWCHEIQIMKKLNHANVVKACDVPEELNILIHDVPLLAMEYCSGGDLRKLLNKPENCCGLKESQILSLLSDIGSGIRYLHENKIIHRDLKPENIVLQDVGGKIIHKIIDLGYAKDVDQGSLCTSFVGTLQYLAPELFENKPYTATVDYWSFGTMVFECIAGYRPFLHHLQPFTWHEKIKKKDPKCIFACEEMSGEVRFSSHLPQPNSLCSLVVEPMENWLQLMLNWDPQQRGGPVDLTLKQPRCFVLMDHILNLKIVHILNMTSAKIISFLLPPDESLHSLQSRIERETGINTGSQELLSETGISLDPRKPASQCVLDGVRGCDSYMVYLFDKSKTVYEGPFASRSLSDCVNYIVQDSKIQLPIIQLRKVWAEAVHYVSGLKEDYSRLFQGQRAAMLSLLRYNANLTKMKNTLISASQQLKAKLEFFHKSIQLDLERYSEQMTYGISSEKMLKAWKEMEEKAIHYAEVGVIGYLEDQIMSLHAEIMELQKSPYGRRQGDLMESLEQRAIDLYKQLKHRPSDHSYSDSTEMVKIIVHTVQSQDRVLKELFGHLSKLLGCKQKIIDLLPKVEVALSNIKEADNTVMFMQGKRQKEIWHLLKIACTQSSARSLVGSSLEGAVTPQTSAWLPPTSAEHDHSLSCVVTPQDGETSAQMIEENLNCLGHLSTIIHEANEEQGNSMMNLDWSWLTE
Procedure, shortened: (§1)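 Recombinant IKKα or IKKβ (37 nM) with 0.375 μM biotinylated IκB-α (Ser32) peptide and 40 μM ATP in 40 mM Tris-HCl pH 7.5, 20 mM MgCl2, 60 min at 30° C. Phospho-substrate captured on streptavidin and detected by anti-phospho-IκB-α plus europium anti-mouse IgG time-resolved fluorescence; apparent Ki via Cheng-Prusoff.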

Recombinant IKKβ = biological target: T2, Recombinant IKKβ (Homo sapiens, UniProt O14920); assay: DELFIA IKKβ kinase assay (apparent Ki, Cheng-Prusoff); format: biochemical
T2 construct: purchased Millipore, Dundee, UK
T2 sequence (O14920 1-756): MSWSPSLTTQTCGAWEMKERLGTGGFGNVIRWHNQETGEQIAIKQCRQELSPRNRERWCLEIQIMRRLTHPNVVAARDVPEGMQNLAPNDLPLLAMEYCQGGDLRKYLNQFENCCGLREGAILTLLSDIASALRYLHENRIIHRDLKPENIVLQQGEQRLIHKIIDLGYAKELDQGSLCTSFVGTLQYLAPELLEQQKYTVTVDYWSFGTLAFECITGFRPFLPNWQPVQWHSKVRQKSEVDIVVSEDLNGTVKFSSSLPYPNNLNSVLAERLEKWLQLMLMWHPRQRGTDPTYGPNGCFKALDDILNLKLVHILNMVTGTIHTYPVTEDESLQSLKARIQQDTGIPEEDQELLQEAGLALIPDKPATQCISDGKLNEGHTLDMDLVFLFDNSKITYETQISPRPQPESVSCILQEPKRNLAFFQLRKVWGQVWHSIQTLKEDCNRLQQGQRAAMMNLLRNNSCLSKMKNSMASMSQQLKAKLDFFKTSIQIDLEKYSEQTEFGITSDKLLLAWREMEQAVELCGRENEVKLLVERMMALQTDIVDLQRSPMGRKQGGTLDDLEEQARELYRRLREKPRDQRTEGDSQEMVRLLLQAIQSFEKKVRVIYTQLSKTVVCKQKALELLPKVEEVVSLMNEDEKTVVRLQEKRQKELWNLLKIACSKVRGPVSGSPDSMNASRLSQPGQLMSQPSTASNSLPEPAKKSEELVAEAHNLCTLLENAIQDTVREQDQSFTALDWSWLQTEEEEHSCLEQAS
Procedure, shortened: as §1

[1] = non-italicised figure: DELFIA assay
[2] = DELFIA assay (first line of an example)

| Ki (Recombinant IKKα; [1]) | Ki (Recombinant IKKβ; [1]) | Ki (Recombinant IKKα; [2]) | Ki (Recombinant IKKβ; [2]) | Structure (SMILES) |
| --- | --- | --- | --- | --- |
| 81 nM | 5030 nM |  |  | Nc1cc(-c2cc(C#Cc3ccccc3)c3[nH]nc(N)c3c2)ccn1 [Example 138, 5-(2-Aminopyridin-4-yl)-7-(phenylethynyl)-1H-indazol-3-amine] |
| 46 nM | 412 nM |  |  | Nc1cc(-c2cc(-c3ccn[nH]3)c3[nH]nc(N)c3c2)ccn1 [Example 133, 5-(2-Aminopyridin-4-yl)-7-(1H-pyrazol-5-yl)-1H-indazol-3-amine] |
| 160 nM | 1500 nM |  |  | CC(C)(C)c1ccc(-c2cc(-c3ccnc(N)c3)cc3c(N)n[nH]c23)cc1 [Example 123, 5-(2-Aminopyridin-4-yl)-7-(4-(tert-butyl)phenyl)-1H-indazol-3-amine] |
| 10 nM | 962 nM |  |  | COC(=O)Nc1cc(-c2cc(C#CC3CC3)c3[nH]nc(N)c3c2)ccn1 [Example 179, Methyl (4-(3-amino-7-(cyclopropylethynyl)-1H-indazol-5yl)-pyridin-2-yl)carbamate] |
| 15 nM | 796 nM |  |  | Nc1n[nH]c2ccc(-c3ccnc(NCCCO)c3)cc12 [Example 21, 3-((4-(3-Amino-1H-indazol-5-yl)pyridine-2-yl)amino)propan-1-ol] |
| 571 nM | > 10000 nM |  |  | Nc1n[nH]c2ccc(-c3ccnc(NC(=O)NCCc4ccccc4)c3)cc12 [Example 46, 1-(4-(3-Amino-1H-indazol-5-yl)pyridin-2-yl)-3-phenethylurea] |
| 55 nM | 880 nM |  |  | Nc1cc(-c2cc(Cl)c3[nH]nc(N)c3c2)ccn1 [Example 1, 5-(2-Aminopyridin-4-yl)-7-chloro-1H-indazol-3-amine] |
|  |  | 23 nM | 90 nM | Nc1n[nH]c2ccc(-c3ccnc4[nH]c(C(=O)NCCc5ccccc5)cc34)cc12 [Example 238, 4-(3-Amino-1H-indazol-5-yl)-N-phenethyl-1H-pyrrolo[2,3-b]pyridine-2-carboxamide] |
|  |  | 26 nM | 419 nM | CC(C)(O)c1cc2c(-c3ccc4[nH]nc(N)c4c3)ccnc2[nH]1 [Example 225, 2-(4-(3-Amino-1H-indazol-5-yl)-1H-pyrrolo[2,3-b]pyridin-2-yl)propan-2-ol] |
| 14 nM | 380 nM |  |  | CC1(C#Cc2cc(-c3ccnc(N)c3)cc3c(N)n[nH]c23)COC1 [Example 141, 5-(2-Aminopyridin-4-yl)-7-((3-methyloxetan-3-yl)ethynyl)-1H-indazol-3-amine] |
|  |  | 93 nM | 2050 nM | CC(C)(O)C#Cc1cc(-c2ccnc(NC3COC3)c2)cc2c(N)n[nH]c12 [Example 287, 4-(3-Amino-5-(2-(oxetan-3-ylamino)pyridin-4-yl)-1H-indazol-7-yl)-2-methylbut-3-yn-2-ol] |
| > 3000 nM | > 30000 nM |  |  | COCCCNc1cc(-c2cc(C#CC(C)(C)C)c3[nH]nc(N)c3c2)ccn1 [Example 163, 7-(3,3-Dimethylbut-1-yn-1-yl)-5-(2-((3-methoxypropyl)amino)pyridine-4-yl)-1H-indazol-3-amine] |
|  |  | 243 nM | 1260 nM | Nc1n[nH]c2c(C#CCCCCOc3ccccc3)cc(-c3ccnc4[nH]ccc34)cc12 [Example 217, 7-(6-Phenoxyhex-1-yn-1-yl)-5-(1H-pyrrolo[2,3-b]pyridin-4-yl)-1H-indazol-3-amine] |
| 17 nM | 128 nM |  |  | COC(=O)c1cccc(C#Cc2c(-c3ccc4[nH]nc(N)c4c3)ccnc2N)c1 [Example 79, Methyl 3-((2-amino-4-(3-amino-1H-indazol-5-yl)149yridine-3-yl)ethynyl)benzoate] |
|  |  | 373 nM | 4900 nM | CC(C)(C)C#Cc1cc(-c2ccnc(NS(C)(=O)=O)c2)cc2c(N)n[nH]c12 [Example 194, N-(4-(3-amino-7-(3,3-dimethylbut-1-yn-1-yl)-1H-indazol-5-yl)pyridin-2-yl)methanesulfonamide] |
|  |  | 335 nM | > 30000 nM | CC(C)(C)C#Cc1cc(-c2ccnc(Nc3nc(C(F)(F)F)co3)c2)cc2c(N)n[nH]c12 [Example 316, N-(4-(3-Amino-7-(3,3-dimethylbut-1-yn-1-yl)-1H-indazol-5-yl)pyridin-2-yl)-4-(trifluoromethyl)oxazol-2-amine] |
| 438 nM | 8100 nM |  |  | CCNC(=O)Nc1cc(-c2cc(C#CC(C)(C)C)c3[nH]nc(N)c3c2)ccn1 [Example 187, 1-(4-(3-Amino-7-(3,3-dimethylbut-1-yn-1-yl)-1H-indazol-5-yl)pyridin-2-yl)-3-ethylurea] |
| 2 nM | 33 nM |  |  | Cc1cc2c(-c3ccc4[nH]nc(N)c4c3)ccnc2[nH]1 [Example 8, 5-(2-Methyl-1H-pyrrolo[2,3-b]pyridin-4-yl)-1H-indazol-3-amine] |
|  |  | 57 nM | 322 nM | CC(C)(C)C#Cc1cc(-c2ccnc3[nH]c(C4CC4)cc23)cc2c(N)n[nH]c12 [Example 294, 5-(2-Cyclopropyl-1H-pyrrolo[2,3-b]pyridin-4-v)-7-(3,3-dimethylbut-1-yn-1-Vl)-1H-indazol-3-amine] |
|  |  | 27 nM | 486 nM | CC(C)(C)C#Cc1cc(-c2ccnc(Nc3nnc[nH]3)c2)cc2c(N)n[nH]c12 [Example 319, 5-(2-((4H-1,2,4-Triazol-3-yl)amino)pyridin-4-yl)-7-(3,3-dimethylbut-1-yn-1-yl)-1H-indazol-3-amine] |
| 26 nM | 1550 nM |  |  | CC(C)(C)C#Cc1cc(-c2ccnc(NC(=O)CC3CC3)c2)cc2c(N)n[nH]c12 [Example 170, N-(4-(3-Amino-7-(3,3-dimethylbut-1-yn-1-yl)-1H-indazol-5-yl)pyridin-2-yl)-2-cyclopropylacetamide] |
|  |  | 8090 nM | 4730 nM | Nc1n[nH]c2c(-c3ccc(O)cc3)cc(-c3ccnc(NC4COC4)c3)cc12 [Example 324, 4-(3-Amino-5-(2-(oxetan-3-ylamino)pyridin-4-yl)-1H-indazol-7-yl)phenol] |
| 79 nM | 2000 nM |  |  | CS(=O)(=O)c1cccc(-c2cc(-c3ccnc(N)c3)cc3c(N)n[nH]c23)c1 [Example 115] |
|  |  | 2 nM | 268 nM | CC(C)(C)C#Cc1cc(-c2ccnc3[nH]c(CO)cc23)cc2c(N)n[nH]c12 [Example 297, (4-(3-Amino-7-(3,3-dimethylbut-1-yn-1-yl)-1H-indazol-5-yl)-1H-pyrrolo[2,3-b]pyridin-2-yl)methanol] |
| 1900 nM | > 10000 nM |  |  | CN(CCCO)c1cc(-c2ccc3[nH]nc(N)c3c2)ccn1 [Example 29, 3-((4-(3-Amino-1H-indazol-5-yl)pyridin-2-yl)(methyl)amino)propan-1-ol] |
|  |  | 614 nM | 3790 nM | COC(=O)Nc1cc(-c2cc(-c3ccc(C(N)=O)cc3)c3[nH]nc(N)c3c2)ccn1 [Example 327, Methyl (4-(3-amino-7-(4-carbamoylphenyl)-1H-indazol-5-yl)pyridin-2-yl)carbamate] |
|  |  | 56 nM | 1470 nM | CC(C)CCNCc1cc2c(-c3ccc4[nH]nc(N)c4c3)ccnc2[nH]1 [Example 249, 5-(2-((Isopentylamino)methyl)-1H-pyrrolo[2,3-b]pyridine-4-yl)-1H-indazol-3-amine] |
|  |  | 215 nM | > 10000 nM | CC(C)(C)C#Cc1cc(-c2ccnc(NCCC(F)(F)F)c2)cc2c(N)n[nH]c12 [Example 283, 7-(3,3-Dimethylbut-1-yn-1-yl)-5-(2-((3,3,3-trifluoropropyl)amino)pyridin-4-yl)-1H-indazol-3-amine] |
|  |  | 1 nM | 51 nM | Nc1n[nH]c2c(Cl)cc(-c3ccnc4[nH]c(CCN5CCOCC5)cc34)cc12 [Example 277, 7-Chloro-5-(2-(2-morpholinoethyl)-1H-pyrrolo[2,3-b]pyridin-4-yl)-1H-indazol-3-amine] |
